# Measurements reported in paper PMC9165844 (PLoS ONE, 2022).
# Entries after “also recorded” stand apart in the source; their conditions may differ.
# How the values were obtained:
# astrocytes = experiment: Cytotoxic effect by MTT assay on astrocytes; conditions: for Astrocytes viability: control for cytotoxicity effect; for Cytotoxicity in astrocyte cultures: MTT, 12.5-200 μM
# BACE 1 = BACE 1 (Homo sapiens, UniProt P56817); experiment: Inhibition of BACE 1 activity (FRET kit); conditions: for BACE1 inhibitory activity (in words): FRET
# BACE 1, sequence (P56817 46-501): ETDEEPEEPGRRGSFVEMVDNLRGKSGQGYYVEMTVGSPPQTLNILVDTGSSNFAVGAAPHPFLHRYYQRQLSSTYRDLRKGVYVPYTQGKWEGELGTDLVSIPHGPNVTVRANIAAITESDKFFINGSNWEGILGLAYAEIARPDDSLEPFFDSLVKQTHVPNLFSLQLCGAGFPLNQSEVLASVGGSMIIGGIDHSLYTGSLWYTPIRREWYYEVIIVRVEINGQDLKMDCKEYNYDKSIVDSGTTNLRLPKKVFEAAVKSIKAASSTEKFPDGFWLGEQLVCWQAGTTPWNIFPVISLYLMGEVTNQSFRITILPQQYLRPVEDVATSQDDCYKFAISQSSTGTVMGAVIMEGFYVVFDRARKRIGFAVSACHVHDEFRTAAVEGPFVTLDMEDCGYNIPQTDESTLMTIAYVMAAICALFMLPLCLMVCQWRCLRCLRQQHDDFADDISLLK
# PC12 = experiment: Cytotoxic effect by MTT assay on PC12 cells; conditions: 12.5-200 μM
# Aβ1–42 = target: T1, Aβ1–42 (Homo sapiens, UniProt P05067); experiment: Inhibition of Aβ1–42 aggregation by Thioflavin T (ThT) assay; type: biochemical; conditions: compound at 100 μM, 48 h, 37°C, ThT fluorescence; read-out: Percentage of inhibition of Aβ1–42 fibrillation
# T1 construct: Aβ of 42 aa residues (Aβ1–42) represents the most amyloidogenic and toxic form; purchased Calbiochem PP69
# T1 sequence (P05067 672-713): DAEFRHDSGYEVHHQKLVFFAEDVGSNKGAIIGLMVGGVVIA
# [1] = Solubility in solvents noted for the synthesized compounds; type: physicochemical; conditions: qualitative
# AChE = AChE (Electrophorus electricus, UniProt O42275); experiment: biochemical; conditions: for Ki: read-out: AChE inhibition constant (Ki)
# AChE, sequence (O42275 24-633 limits assumed): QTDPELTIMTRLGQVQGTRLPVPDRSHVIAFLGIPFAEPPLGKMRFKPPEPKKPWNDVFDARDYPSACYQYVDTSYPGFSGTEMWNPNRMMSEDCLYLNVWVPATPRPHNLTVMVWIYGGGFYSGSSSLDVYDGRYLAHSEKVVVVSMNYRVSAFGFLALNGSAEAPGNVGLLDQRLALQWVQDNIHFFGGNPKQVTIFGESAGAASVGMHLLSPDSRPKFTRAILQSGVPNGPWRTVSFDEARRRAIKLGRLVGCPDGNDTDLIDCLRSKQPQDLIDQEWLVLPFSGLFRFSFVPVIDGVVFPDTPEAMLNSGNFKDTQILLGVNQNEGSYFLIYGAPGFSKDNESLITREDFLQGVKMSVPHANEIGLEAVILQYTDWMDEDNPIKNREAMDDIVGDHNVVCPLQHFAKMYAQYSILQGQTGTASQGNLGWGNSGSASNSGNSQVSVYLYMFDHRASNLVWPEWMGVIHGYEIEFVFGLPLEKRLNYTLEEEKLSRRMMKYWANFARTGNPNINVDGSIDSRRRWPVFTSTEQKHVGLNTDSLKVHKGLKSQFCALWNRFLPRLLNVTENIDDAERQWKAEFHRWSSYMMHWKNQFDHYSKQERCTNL
# NIH3T3 fibroblasts = experiment: Cytotoxic effect by MTT assay on NIH3T3 fibroblasts; conditions: 12.5-200 μM
smiles,measurement,setting,value
"[Cl][Cd][Cl] [Cadmium chloride, reference compound]",Astrocytes viability,astrocytes; at 100 μM,25%
same,Astrocytes viability,astrocytes; at concentrations 1 μM ≤,above 80%
"COc1ccc(CN)cc1OCCN1CCCCC1 [Compound F2S4-m, (4-methoxy-3-(2-(piperidin-1-yl)ethoxy)phenyl) methanamine]",IC50,BACE 1,16 µM
same,BACE1 inhibitory activity (in words),BACE 1,showed inhibitory activity
same,Cytotoxicity in PC12 cell cultures,PC12,not cytotoxic
same,inhibition at 100 µM,Aβ1–42,60.9%
same,Cytotoxicity in astrocyte cultures,astrocytes,not cytotoxic
same,Solubility (solvents),[1],"MetOH, EtOH, Acetone, CHCl3, EtOAc, H2O"
same,AChE inhibitory activity (in words),AChE,showed inhibitory activity
same,Ki,AChE,0.4 µM
same,Cytotoxicity in fibroblast cultures,NIH3T3 fibroblasts,not cytotoxic
"COc1cc(CN)ccc1OCCN1CCCCC1 [Compound F2S4-p, (3-methoxy-4-(2-(piperidin-1-yl)ethoxy)phenyl) methanamine]",BACE1 inhibitory activity (in words),BACE 1,not possible to determine its IC50 value; also recorded: did not show inhibitory activity; also recorded: did not show inhibition
same,inhibition at 100 µM,Aβ1–42,42.1%
same,Solubility (solvents),[1],"MetOH, EtOH, water"
same,AChE inhibitory activity (in words),AChE,no significant effect; also recorded: did not show inhibitory activity; also recorded: did not show inhibition
same,Ki,AChE,> 100 µM
same,Cytotoxicity in fibroblast cultures,NIH3T3 fibroblasts,showed cytotoxic
"COc1ccc(CN)cc1OCCN1CCCC1 [Compound F3S4-m, (4-methoxy-3-(2-(pyrrolidin-1-yl)ethoxy)phenyl) methanamine]",IC50,BACE 1,8.38 µM
same,BACE1 inhibitory activity (in words),BACE 1,showed inhibitory activity
same,Cytotoxicity in PC12 cell cultures,PC12,not cytotoxic
same,inhibition at 100 µM,Aβ1–42,30.5%
same,Cytotoxicity in astrocyte cultures,astrocytes,not cytotoxic
same,Solubility (solvents),[1],"MetOH, EtOH, Acetone"
same,AChE inhibitory activity (in words),AChE,showed inhibitory activity
same,Ki,AChE,0.19 µM
same,Cytotoxicity in fibroblast cultures,NIH3T3 fibroblasts,not cytotoxic
